Assay in all cases: growth of human tumour cells (NCI), 48 h
Assay [1] relates to BT-549 breast.
For assay [2], the system named is CAKI-1 renal.
Assay [3] relates to HCC-2998 colon.
In assay [4] the test system is HCT-116 colon.
In assay [5] the test system is NCI-H23 lung.
Assay [6] concerns RPMI-8226 leukemia.
Assay [7] relates to SNB-19 CNS.
Assay [8] relates to UACC-62 melanoma.
Assay [9] concerns UO-31 renal.
For assay [10], the system named is CCRF-CEM leukemia.

Several values for one entry are separate records, joined by “and”; a condition that tells them apart may be missing. Equal entries are not always repeated.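 Exposure lasted 48 hours, with cells grown in 96-well plates and compounds tested at five concentrations. At the GI50, growth is halved. TGI marks complete inhibition of growth.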

We go through eight compounds from PubChem BioAssay (NCI).

Consider `CCc1ccc([OH2+])c(C(=O)[O-])c1.CCc1ccc([OH2+])c(C(=O)[O-])c1.CCc1ccc([OH2+])c(C(=O)[O-])c1.CCc1ccc([OH2+])c(C(=O)[O-])c1.[Cu+2].[Cu+2]`, for which the GI50 was 78.6 µM in assay [1]; 24.9 µM in assay [2]; 64.8 µM in [3]; above 100 µM in assay [4]; above 100 µM in assay [5]; 41.3 µM in [6]. Besides, the results for the GI50 in assay [7], in assay [8] and in assay [9] were 36.8 µM, 70.5 µM and above 100 µM, respectively. Moreover, the TGI in assay [1] was above 100 µM; in assay [2], above 82.4 µM; in assay [3], above 100 µM; in assay [4] it was above 100 µM; in assay [5], above 100 µM; in assay [6], above 100 µM. Moreover, the TGI in assay [7] was above 61.8 µM; in [8], above 100 µM; in assay [9] it was above 100 µM.

As for `O=C(CC1(O)C(=O)Nc2ccc(Cl)cc21)c1ccc(C(=O)NCC2CCC3(CC2)OOC2(CCCCC2)OO3)cc1` (configuration not stated), the GI50 in assay [1] was 3.01 µM; in assay [2], 1.62 µM; in [10] it was 1.22 µM; in assay [3], 4.27 µM; in [4] it was 2.71 µM; in assay [5], 1.72 µM. For the same compound, the GI50 is 1.73 µM in assay [6], 4.19 µM in assay [7] and 5.05 µM in [8]. Further, the TGI in assay [1] stood at 16.1 µM; in assay [2], 3.27 µM; in assay [10] it was 3.99 µM; in assay [3], 21.4 µM; in assay [4] it was 12.3 µM; in [5] it was 21.3 µM. Further, the TGI in [6] is 4.72 µM; in assay [7] it was 23.6 µM; in assay [8] it was 27.6 µM.

`O=C1c2ccccc2-c2cn(Cc3ccccc3)c3cccc(c23)C1c1cccnc1` (configuration not stated): the GI50 in [1] is 6.62 µM; in assay [2], 2.74 µM; in assay [10], 2.62 µM; in assay [3] it was 11.4 µM; in assay [4], 1.99 µM; in assay [5] it was 1.74 µM. Besides, the results for the GI50 in assay [7], in assay [8] and in [9] were 14.3 µM, 2.73 µM and 5.2 µM, respectively. The TGI in [1], in assay [2], in [10], in assay [3], in assay [4] and in [5] was above 50 µM throughout. For the same compound, the TGI in [7], in assay [8] and in assay [9] was above 50 µM throughout.

As to `COc1ccc([C@@H]2[C@@H](Cl)C(=O)N2c2cc(OC)c(OC)c(OC)c2)cc1C`, the GI50 is 0.0717 µM in [1]; 0.0465 µM in assay [10]; 0.347 µM in assay [3]; 0.0401 µM in assay [4]; 0.0853 µM in [5]; 0.0641 µM in assay [6]. Also, the GI50 in assay [7] was 0.0535 µM; in assay [8] it was 0.0607 µM; in [9], 0.172 µM. For the same compound, the TGI in assay [1] was 1.13 µM; in [10], above 100 µM; in assay [3], 58.4 µM; in [4], 11.4 µM; in assay [5], above 100 µM; in assay [6], 28.3 µM. The TGI in assay [7] is above 100 µM; in [8] it was 41.1 µM; in [9] it was 47.6 µM.

On to `C=C1C(C)C2C(Cc3ccccc3)NC(=O)C23C(OC(C)=O)C=CC(C)(O)C(=O)C(C)C/C=C/C3C1O` (configuration not stated), for which the GI50 in assay [2] was 0.05 µM; in assay [10] it was 15.4 µM; in assay [3], above 500 µM; in assay [4], 1.04 µM; in assay [5], 15.6 µM; in assay [6] it was 3.9 µM. For the same compound, the results for the GI50 in assay [7] and in [8] were 0.474 µM and 29.4 µM, respectively. Also, the TGI is 1.12 µM and 1.66 µM in assay [2]; 78.8 µM and > 500 µM in assay [10]; above 500 µM in assay [3]; above 500 µM in assay [4]; 82.2 µM and 259 µM in [5]; 65.5 µM and > 500 µM in assay [6]. For the same compound, the TGI in assay [8] is above 285 µM; in assay [9], 1.62 µM and 14.3 µM.

With `COc1cc([C@@H]2c3cc4c(cc3[C@@H](OC3OC5COC(C)OC5C(O)C3O)[C@H]3COC(=O)[C@H]23)OCO4)cc(OC)c1O` (some centres not stated), the GI50 in assay [1] was 1.83 µM; in [6], 14.8 µM and 2.41 µM. Besides, the TGI is 41.2 µM and 35 µM and 6.05 µM in [1]; 31.4 µM and 77.1 µM and 49.2 µM in [2]; 25.8 µM and 90.4 µM and 130 µM in assay [4]; > 71.7 µM and 68 µM in assay [6]; 118 µM and 500 µM and 171 µM in assay [7]; 110 µM and 89.7 µM and 175 µM in [9].

On to `CC(=O)[CH-]C(=O)c1ccccc1.CC(=O)[CH-]C(=O)c1ccccc1.Cl.[O-]CCc1ccccn1.[O-]CCc1ccccn1.[Ti+4]`, for which the GI50 in [2] was 44.1 µM; in [10], 15.9 µM; in assay [3] it was 26.9 µM; in assay [4], 18.9 µM; in assay [5], 24.7 µM; in [6], 15.8 µM. The results for the GI50 in [7], in [8] and in [9] were 19.6 µM, 23.6 µM and 17.4 µM, respectively. The TGI is above 100 µM in [2]; above 100 µM in assay [10]; 83.6 µM in assay [3]; 55.6 µM in [4]; 53.8 µM in assay [5]; 58.4 µM in [6]. Further, the TGI in assay [7] was 49 µM; in [8], above 100 µM; in assay [9] it was 47.4 µM.

Regarding `COc1cc2c3c(c4cc(OC)c(OC)cc4c2cc1OC)CN1CCC[C@H]1C3`, the TGI in [1] was 0.0849 µM and 0.657 µM; in assay [2], 0.481 µM and 0.926 µM; in [10] it was 0.977 µM and 4.84 µM; in [3], 0.3 µM and 0.656 µM; in [4], 1.75 µM and 1.04 µM; in [5], 0.653 µM and 3.4 µM. Also, the TGI is 0.435 µM and 2.13 µM in assay [6]; 0.184 µM in assay [7]; 1.66 µM and 1 µM in assay [9]. The GI50 in [10] is 0.0524 µM and < 0.0104 µM; in [3] it was 0.0356 µM and < 0.01 µM; in assay [5] it was 0.0406 µM and < 0.0123 µM; in assay [6], 0.0906 µM and < 0.0175 µM.
